Reference: patent US10815230B2, “Casein kinase 1 delta inhibitor” (ELECTROPHORETICS LIMITED, priority 2015, dated 2020)

What was measured:
CAMKK2 = CAMKK2 (Homo sapiens, UniProt Q96RR4); experiment: KINOMEscan binding assay; details: read-out: % Ctrl @ 10000 nM
YSK4 = biological target: T1, YSK4 (Homo sapiens, UniProt Q56UN5); experiment: KINOMEscan binding assay; details: read-out: % Ctrl @ 10000 nM
T1 construct: purchased DiscoveRx (KINOMEscan, LeadHunter Discovery services)

PFCDPK1 P. falciparum = PFCDPK1 P. falciparum (Plasmodium falciparum, UniProt P62344); experiment: KINOMEscan binding assay; details: read-out: % Ctrl @ 10000 nM
Chain of PFCDPK1 P. falciparum (P62344 whole entry): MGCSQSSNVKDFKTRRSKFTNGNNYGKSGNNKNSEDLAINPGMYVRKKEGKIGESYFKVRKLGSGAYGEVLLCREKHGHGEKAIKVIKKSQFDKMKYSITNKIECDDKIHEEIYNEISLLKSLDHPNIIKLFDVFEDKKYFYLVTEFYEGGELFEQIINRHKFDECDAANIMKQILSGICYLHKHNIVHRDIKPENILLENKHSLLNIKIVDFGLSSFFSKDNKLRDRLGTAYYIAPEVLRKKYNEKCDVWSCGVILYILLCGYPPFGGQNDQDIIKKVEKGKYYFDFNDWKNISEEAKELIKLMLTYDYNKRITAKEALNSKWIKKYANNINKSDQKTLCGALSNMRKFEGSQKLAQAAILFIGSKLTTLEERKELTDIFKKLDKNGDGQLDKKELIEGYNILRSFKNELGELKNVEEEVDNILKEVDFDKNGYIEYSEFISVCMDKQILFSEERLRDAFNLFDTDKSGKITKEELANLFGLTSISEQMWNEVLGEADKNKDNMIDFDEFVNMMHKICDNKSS

ERK1 = ERK1 (Homo sapiens, UniProt P27361); experiment: KINOMEscan binding assay; details: read-out: % Ctrl @ 10000 nM
PIK4CB = PIK4CB (Homo sapiens, UniProt Q9UBF8); experiment: KINOMEscan binding assay; details: read-out: % Ctrl @ 10000 nM
STK33 = STK33 (Homo sapiens, UniProt Q9BYT3); experiment: KINOMEscan binding assay; details: read-out: % Ctrl @ 10000 nM
DYRK1B = DYRK1B (Homo sapiens, UniProt Q9Y463); experiment: KINOMEscan binding assay; details: read-out: % Ctrl @ 10000 nM
MEK6 = MEK6 (Homo sapiens, UniProt P52564); experiment: KINOMEscan binding assay; details: read-out: % Ctrl @ 10000 nM
Chain of MEK6 (P52564 whole entry): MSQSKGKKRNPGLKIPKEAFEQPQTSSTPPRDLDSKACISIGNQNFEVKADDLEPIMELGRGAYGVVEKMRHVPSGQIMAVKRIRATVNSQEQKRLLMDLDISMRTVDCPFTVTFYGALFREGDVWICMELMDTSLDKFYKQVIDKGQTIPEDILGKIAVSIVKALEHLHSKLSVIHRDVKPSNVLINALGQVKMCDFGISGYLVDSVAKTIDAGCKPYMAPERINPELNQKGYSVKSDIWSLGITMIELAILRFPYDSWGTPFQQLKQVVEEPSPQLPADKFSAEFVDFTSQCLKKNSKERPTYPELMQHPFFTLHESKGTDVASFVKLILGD

ERK8 = ERK8 (Homo sapiens, UniProt Q8TD08); experiment: KINOMEscan binding assay; details: read-out: % Ctrl @ 10000 nM
MAP3K4 = biological target: T2, MAP3K4 (Homo sapiens, UniProt Q9Y6R4); experiment: KINOMEscan binding assay; details: read-out: % Ctrl @ 10000 nM
T2 construct: T7 phage fusion (most assays) or DNA label after HEK293 expression; purchased DiscoveRx (KINOMEscan, LeadHunter Discovery services); host or cells: T7 phage in E. coli (BL21-derived) or HEK293

EPHB3 = EPHB3 (Homo sapiens, UniProt P54753); experiment: KINOMEscan binding assay; details: read-out: % Ctrl @ 10000 nM
TSSK1B = TSSK1B (Homo sapiens, UniProt Q9BXA7); experiment: KINOMEscan binding assay; details: read-out: % Ctrl @ 10000 nM
MRCKA = MRCKA (Homo sapiens, UniProt Q5VT25); experiment: KINOMEscan binding assay; details: read-out: % Ctrl @ 10000 nM
MEK3 = MEK3 (Homo sapiens, UniProt P46734); experiment: KINOMEscan binding assay; details: read-out: % Ctrl @ 10000 nM
Chain of MEK3 (P46734 whole entry): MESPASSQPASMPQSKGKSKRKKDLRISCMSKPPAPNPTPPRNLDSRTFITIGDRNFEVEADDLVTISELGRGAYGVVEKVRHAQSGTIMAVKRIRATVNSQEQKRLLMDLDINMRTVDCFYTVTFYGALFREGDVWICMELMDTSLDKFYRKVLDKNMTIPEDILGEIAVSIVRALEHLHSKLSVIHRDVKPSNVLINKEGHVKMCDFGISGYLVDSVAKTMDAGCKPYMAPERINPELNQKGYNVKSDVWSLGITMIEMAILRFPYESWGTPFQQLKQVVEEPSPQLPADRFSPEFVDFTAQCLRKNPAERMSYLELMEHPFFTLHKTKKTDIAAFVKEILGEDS

IKK-alpha = IKK-alpha (Homo sapiens, UniProt O15111); experiment: KINOMEscan binding assay; details: read-out: % Ctrl @ 10000 nM
Chain of IKK-alpha (O15111 whole entry): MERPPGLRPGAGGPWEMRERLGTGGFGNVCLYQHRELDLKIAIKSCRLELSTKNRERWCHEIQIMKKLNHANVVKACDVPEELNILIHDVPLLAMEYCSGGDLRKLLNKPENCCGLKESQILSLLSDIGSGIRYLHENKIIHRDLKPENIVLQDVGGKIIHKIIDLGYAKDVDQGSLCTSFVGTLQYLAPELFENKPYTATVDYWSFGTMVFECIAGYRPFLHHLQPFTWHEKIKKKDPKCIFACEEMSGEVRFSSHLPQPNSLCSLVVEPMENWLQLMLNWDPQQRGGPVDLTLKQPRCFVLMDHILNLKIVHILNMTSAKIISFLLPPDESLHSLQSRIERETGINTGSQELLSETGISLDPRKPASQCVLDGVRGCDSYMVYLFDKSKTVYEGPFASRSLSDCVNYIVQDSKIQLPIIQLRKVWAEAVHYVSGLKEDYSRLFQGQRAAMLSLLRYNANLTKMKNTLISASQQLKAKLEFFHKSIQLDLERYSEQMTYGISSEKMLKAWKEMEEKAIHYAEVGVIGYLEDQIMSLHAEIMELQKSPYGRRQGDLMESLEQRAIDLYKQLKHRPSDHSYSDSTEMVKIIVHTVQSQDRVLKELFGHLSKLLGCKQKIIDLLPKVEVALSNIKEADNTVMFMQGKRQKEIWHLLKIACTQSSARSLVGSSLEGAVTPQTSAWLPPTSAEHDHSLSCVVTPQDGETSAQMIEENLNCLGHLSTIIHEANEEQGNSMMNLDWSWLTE

INSR = INSR (Homo sapiens, UniProt P06213); experiment: KINOMEscan binding assay; details: read-out: % Ctrl @ 10000 nM
FLT3 = FLT3 (Homo sapiens, UniProt P36888); experiment: KINOMEscan binding assay; details: read-out: % Ctrl @ 10000 nM
GAK = GAK (Homo sapiens, UniProt O14976); experiment: KINOMEscan binding assay; details: read-out: % Ctrl @ 10000 nM
MEK5 = MEK5 (Homo sapiens, UniProt Q13163); experiment: KINOMEscan binding assay; details: read-out: % Ctrl @ 10000 nM
Chain of MEK5 (Q13163 whole entry): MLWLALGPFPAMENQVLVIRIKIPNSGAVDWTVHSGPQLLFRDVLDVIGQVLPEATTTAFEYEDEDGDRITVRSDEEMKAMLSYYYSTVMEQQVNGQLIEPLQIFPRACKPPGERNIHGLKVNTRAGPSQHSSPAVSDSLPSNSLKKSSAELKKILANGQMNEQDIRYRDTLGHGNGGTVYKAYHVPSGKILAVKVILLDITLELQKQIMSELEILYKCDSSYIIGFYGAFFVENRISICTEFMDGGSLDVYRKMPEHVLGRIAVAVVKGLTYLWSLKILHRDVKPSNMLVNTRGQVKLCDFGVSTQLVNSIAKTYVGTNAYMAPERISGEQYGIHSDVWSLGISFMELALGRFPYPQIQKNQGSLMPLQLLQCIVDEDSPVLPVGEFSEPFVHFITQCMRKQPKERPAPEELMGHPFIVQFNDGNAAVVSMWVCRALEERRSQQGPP

AAK1 = AAK1 (Homo sapiens, UniProt Q2M2I8); experiment: KINOMEscan binding assay; details: read-out: % Ctrl @ 10000 nM
WEE2 = biological target: T3, WEE2 (Homo sapiens, UniProt P0C1S8); experiment: KINOMEscan binding assay; details: read-out: % Ctrl @ 10000 nM
T3 construct: purchased DiscoveRx (KINOMEscan, LeadHunter Discovery services)
T3 sequence (P0C1S8 whole entry): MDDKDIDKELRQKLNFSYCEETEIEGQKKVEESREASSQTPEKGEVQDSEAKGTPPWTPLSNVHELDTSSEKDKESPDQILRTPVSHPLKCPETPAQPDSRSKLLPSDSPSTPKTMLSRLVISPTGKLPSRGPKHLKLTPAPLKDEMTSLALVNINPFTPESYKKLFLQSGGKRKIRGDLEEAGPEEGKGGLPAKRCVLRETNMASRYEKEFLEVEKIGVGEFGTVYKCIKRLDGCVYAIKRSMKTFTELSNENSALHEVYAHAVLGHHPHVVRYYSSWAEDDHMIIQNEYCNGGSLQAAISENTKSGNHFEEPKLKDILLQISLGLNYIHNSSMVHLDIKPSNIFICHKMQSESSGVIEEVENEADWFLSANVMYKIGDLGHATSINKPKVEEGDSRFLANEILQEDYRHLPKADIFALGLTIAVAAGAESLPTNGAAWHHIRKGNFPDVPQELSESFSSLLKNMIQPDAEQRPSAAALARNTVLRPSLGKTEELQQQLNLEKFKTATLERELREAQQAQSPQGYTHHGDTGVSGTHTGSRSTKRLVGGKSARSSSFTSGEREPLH

SBK1 = SBK1 (Homo sapiens, UniProt Q52WX2); experiment: KINOMEscan binding assay; details: read-out: % Ctrl @ 10000 nM
SGK3 = SGK3 (Homo sapiens, UniProt Q96BR1); experiment: KINOMEscan binding assay; details: read-out: % Ctrl @ 10000 nM
MARK2 = MARK2 (Homo sapiens, UniProt Q7KZI7); experiment: KINOMEscan binding assay; details: read-out: % Ctrl @ 10000 nM
NEK9 = NEK9 (Homo sapiens, UniProt Q8TD19); experiment: KINOMEscan binding assay; details: read-out: % Ctrl @ 10000 nM
FGFR3 (G697C) = FGFR3 (G697C) (Homo sapiens, UniProt P22607, G697C); experiment: KINOMEscan binding assay; details: read-out: % Ctrl @ 10000 nM
BMPR1B = BMPR1B (Homo sapiens, UniProt O00238); experiment: KINOMEscan binding assay; details: read-out: % Ctrl @ 10000 nM
AMPK-alpha1 = AMPK-alpha1 (Homo sapiens, UniProt Q13131); experiment: KINOMEscan binding assay; details: read-out: % Ctrl @ 10000 nM
BTK = BTK (Homo sapiens, UniProt Q06187); experiment: KINOMEscan binding assay; details: read-out: % Ctrl @ 10000 nM
in vitro = details: human
Protocol: (§1) The cytotoxicity screening panel was performed by Cyprotex® according to their established protocols. HepG2 cells were plated on 96-well tissue culture treated black walled clear bottomed polystyrene plates, 100 μL per well. The cells were dosed with compound A and comparative compound 324 (WO2012080727; 5-(1,3-benzoxazol-2-yl)-4-(pyridine-4-yl)pyrimidin-2-amine) amine) at […], 0.1 μM, 0.4 μM, 1.0 μM, 4.0 μM, 10 μM, 40 μM and 100 μM. At the end of the incubation period (72 h), the cells were loaded with the relevant dye/antibody for each cell health marker. The plates were then scanned using an automated fluorescent cellular imager, ArrayScan® VTI (Thermo Scientific Cellomics).
(§2) Cytotoxicity was assessed using a multiparametric approach using High Content Screening (HCS) O'Brien P and Haskins J R (2007) High Content Screening: A Powerful Approach to Systems Cell Biology and Drug Discovery Ed. Taylor et al.; 415-425). […] This assay scores compounds across direct and indirect measure of toxicity.

HepG2 cells = experiment: in vitro; details: human, 72 h
Protocol: as §1, §2

PRKG2 = PRKG2 (Homo sapiens, UniProt Q13237); experiment: KINOMEscan binding assay; details: read-out: % Ctrl @ 10000 nM
Chain of PRKG2 (Q13237 whole entry): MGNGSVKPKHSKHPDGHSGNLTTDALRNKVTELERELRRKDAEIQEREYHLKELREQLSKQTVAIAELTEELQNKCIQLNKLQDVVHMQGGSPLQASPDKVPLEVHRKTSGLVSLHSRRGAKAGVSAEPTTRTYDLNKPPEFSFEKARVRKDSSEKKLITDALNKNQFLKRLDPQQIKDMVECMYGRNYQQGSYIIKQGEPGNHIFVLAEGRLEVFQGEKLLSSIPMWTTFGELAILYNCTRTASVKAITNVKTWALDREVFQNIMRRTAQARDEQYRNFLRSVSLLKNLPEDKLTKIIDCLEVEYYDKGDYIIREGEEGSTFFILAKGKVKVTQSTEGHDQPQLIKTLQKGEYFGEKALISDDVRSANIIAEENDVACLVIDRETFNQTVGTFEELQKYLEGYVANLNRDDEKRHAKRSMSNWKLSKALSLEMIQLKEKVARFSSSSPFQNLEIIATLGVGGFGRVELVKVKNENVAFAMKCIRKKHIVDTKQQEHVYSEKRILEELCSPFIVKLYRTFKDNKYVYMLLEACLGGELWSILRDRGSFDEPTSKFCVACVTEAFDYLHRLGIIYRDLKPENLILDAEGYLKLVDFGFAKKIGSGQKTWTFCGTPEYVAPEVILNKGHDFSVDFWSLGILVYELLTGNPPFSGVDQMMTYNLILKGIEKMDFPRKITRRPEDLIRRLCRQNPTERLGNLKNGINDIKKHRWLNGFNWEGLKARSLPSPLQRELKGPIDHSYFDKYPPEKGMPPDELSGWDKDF

KIT (V559D) = KIT (V559D) (Homo sapiens, UniProt P10721, V559D); experiment: KINOMEscan binding assay; details: read-out: % Ctrl @ 10000 nM
Chain of KIT (V559D) (P10721 26-976 V559D): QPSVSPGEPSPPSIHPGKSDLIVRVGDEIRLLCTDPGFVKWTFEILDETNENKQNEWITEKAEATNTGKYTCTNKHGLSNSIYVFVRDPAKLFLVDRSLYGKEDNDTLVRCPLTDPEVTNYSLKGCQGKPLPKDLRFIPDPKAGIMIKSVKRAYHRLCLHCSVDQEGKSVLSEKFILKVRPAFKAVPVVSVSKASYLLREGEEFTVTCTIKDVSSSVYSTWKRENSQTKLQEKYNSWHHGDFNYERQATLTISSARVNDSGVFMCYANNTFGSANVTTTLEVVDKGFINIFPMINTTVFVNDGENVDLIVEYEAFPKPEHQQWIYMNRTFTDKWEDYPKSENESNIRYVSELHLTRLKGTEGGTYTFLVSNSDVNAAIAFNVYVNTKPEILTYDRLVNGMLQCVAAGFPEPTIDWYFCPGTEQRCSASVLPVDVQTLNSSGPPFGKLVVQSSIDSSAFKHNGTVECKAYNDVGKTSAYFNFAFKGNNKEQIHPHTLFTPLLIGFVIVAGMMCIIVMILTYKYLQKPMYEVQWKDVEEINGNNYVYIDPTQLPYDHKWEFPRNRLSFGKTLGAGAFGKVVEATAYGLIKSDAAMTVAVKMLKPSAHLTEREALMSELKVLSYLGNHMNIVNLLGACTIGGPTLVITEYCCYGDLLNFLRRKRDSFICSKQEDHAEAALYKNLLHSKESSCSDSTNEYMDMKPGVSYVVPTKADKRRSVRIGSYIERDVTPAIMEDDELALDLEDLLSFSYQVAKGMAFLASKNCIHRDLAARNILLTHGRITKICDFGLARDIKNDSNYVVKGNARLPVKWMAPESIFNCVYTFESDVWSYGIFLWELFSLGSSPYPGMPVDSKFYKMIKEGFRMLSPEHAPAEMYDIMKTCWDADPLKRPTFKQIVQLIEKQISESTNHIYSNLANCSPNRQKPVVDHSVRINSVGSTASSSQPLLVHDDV

LTK = biological target: T4, LTK (Homo sapiens, UniProt P29376); experiment: KINOMEscan binding assay; details: read-out: % Ctrl @ 10000 nM
T4 construct: T7 phage fusion (most assays) or DNA label after HEK293 expression; purchased DiscoveRx (KINOMEscan, LeadHunter Discovery services); host or cells: T7 phage in E. coli (BL21-derived) or HEK293

[1] = Cell membrane permeability AC50
[2] = Mitochondrial membrane potential AC50

With `Nc1ncc(-c2nc3ccccc3o2)c(-c2ccncc2)n1` [Comparative Compound 324, 5-(1,3-benzoxazol-2-yl)-4-(pyridine-4-yl)pyrimidin-2-amine] the remaining binding at 10 µM (CAMKK2) was 97%, the remaining binding at 10 µM (YSK4) was 88% and the remaining binding at 10 µM (PFCDPK1 P. falciparum) was 78%. It also gave a remaining binding at 10 µM (ERK1) of 96%, a remaining binding at 10 µM (PIK4CB) of 96% and a remaining binding at 10 µM (STK33) of 77%. It also gave a remaining binding at 10 µM (DYRK1B) of 97%, a remaining binding at 10 µM (MEK6) of 98% and a remaining binding at 10 µM (ERK8) of 99%. For the same molecule, the remaining binding at 10 µM (MAP3K4) was 51%, the remaining binding at 10 µM (EPHB3) was 95% and the remaining binding at 10 µM (TSSK1B) was 100%. It also gave a remaining binding at 10 µM (MRCKA) of 99%, a remaining binding at 10 µM (MEK3) of 80% and a remaining binding at 10 µM (IKK-alpha) of 92%. The remaining binding at 10 µM (INSR) was 100%, the remaining binding at 10 µM (FLT3) was 100% and the remaining binding at 10 µM (GAK) was 87%. The remaining binding at 10 µM (MEK5) was 66%, the remaining binding at 10 µM (AAK1) was 83% and the remaining binding at 10 µM (WEE2) was 100%. The remaining binding at 10 µM (SBK1) was 83%, the remaining binding at 10 µM (SGK3) was 94% and the remaining binding at 10 µM (MARK2) was 91%. It also gave a remaining binding at 10 µM (NEK9) of 100%, a remaining binding at 10 µM (FGFR3 (G697C)) of 76% and a remaining binding at 10 µM (BMPR1B) of 80%. For the same molecule, the remaining binding at 10 µM (AMPK-alpha1) was 98%, the remaining binding at 10 µM (BTK) was 92% and the AC50 at 72 h (in vitro; Cell Count AC50) was > 100 µM. The AC50 at 72 h (in vitro; [1]) was > 100 µM, the AC50 at 72 h (in vitro; Cytochrome c AC50) was 82 µM and the AC50 at 72 h (in vitro; DNA structure AC50) was > 100 µM. The AC50 at 72 h (in vitro; Mitochondrial mass AC50) was > 100 µM, the AC50 at 72 h (in vitro; [2]) was > 100 µM and the AC50 at 72 h (in vitro; Nuclear size AC50) was > 100 µM. For the same molecule, the “Cell membrane permeability MEC” value (HepG2 cells) was “(11.1↑) μM”, the “Cytochrome c MEC” value (HepG2 cells) was “(22.2↑) μM” and the “DNA structure MEC” value (HepG2 cells) was “(7.33↑) μM”. For the same molecule, the “Mitochondrial mass MEC” value (HepG2 cells) was “(16.8↓) μM”, the “Mitochondrial membrane potential MEC” value (HepG2 cells) was “(17.2↑) μM” and the remaining binding at 10 µM (PRKG2) was 82%. For the same molecule, the remaining binding at 10 µM (KIT (V559D)) was 69% and the remaining binding at 10 µM (LTK) was 74%.
`CNc1c(C(N)=O)c2ccccn2c1C(=O)c1ccc(F)cc1` [Compound A, 2-methyl-amino-3-[(4-fluorophenyl)carbonyl]indolizine-1-carboxamide] gave a remaining binding at 10 µM (CAMKK2) of 82%, a remaining binding at 10 µM (YSK4) of 73% and a remaining binding at 10 µM (PFCDPK1 P. falciparum) of 0.9%. For the same molecule, the remaining binding at 10 µM (ERK1) was 100%, the remaining binding at 10 µM (PIK4CB) was 90% and the remaining binding at 10 µM (STK33) was 72%. For the same molecule, the remaining binding at 10 µM (DYRK1B) was 89%, the remaining binding at 10 µM (MEK6) was 73% and the remaining binding at 10 µM (ERK8) was 98%. The remaining binding at 10 µM (MAP3K4) was 35%, the remaining binding at 10 µM (EPHB3) was 42% and the remaining binding at 10 µM (TSSK1B) was 100%. For the same molecule, the remaining binding at 10 µM (MRCKA) was 94%, the remaining binding at 10 µM (MEK3) was 60% and the remaining binding at 10 µM (IKK-alpha) was 96%. The remaining binding at 10 µM (INSR) was 100%, the remaining binding at 10 µM (FLT3) was 96% and the remaining binding at 10 µM (GAK) was 10%. The remaining binding at 10 µM (MEK5) was 51%, the remaining binding at 10 µM (AAK1) was 62% and the remaining binding at 10 µM (WEE2) was 100%. The remaining binding at 10 µM (SBK1) was 77%, the remaining binding at 10 µM (SGK3) was 98% and the remaining binding at 10 µM (MARK2) was 85%. It also gave a remaining binding at 10 µM (NEK9) of 100%, a remaining binding at 10 µM (FGFR3 (G697C)) of 71% and a remaining binding at 10 µM (BMPR1B) of 81%. For the same molecule, the remaining binding at 10 µM (AMPK-alpha1) was 91%, the remaining binding at 10 µM (BTK) was 88% and the AC50 at 72 h (in vitro; Cell Count AC50) was 7.88 µM. The AC50 at 72 h (in vitro; [1]) was > 40 µM, the AC50 at 72 h (in vitro; Cytochrome c AC50) was > 100 µM and the AC50 at 72 h (in vitro; DNA structure AC50) was > 100 µM. For the same molecule, the AC50 at 72 h (in vitro; Mitochondrial mass AC50) was > 40 µM, the AC50 at 72 h (in vitro; [2]) was 43.4 µM and the AC50 at 72 h (in vitro; Nuclear size AC50) was 12.3 µM. The “Cell Count MEC” value (HepG2 cells) was 2.75↓ μM, the “Cell membrane permeability MEC” value (HepG2 cells) was 1.26↑ μM and the “DNA structure MEC” value (HepG2 cells) was 15.1↑ μM. For the same molecule, the “Mitochondrial mass MEC” value (HepG2 cells) was 1.34↑ μM, the “Mitochondrial membrane potential MEC” value (HepG2 cells) was 3.31↓ μM and the “Nuclear size MEC” value (HepG2 cells) was 2.44↑ μM. It also gave a remaining binding at 10 µM (PRKG2) of 76%, a remaining binding at 10 µM (KIT (V559D)) of 19% and a remaining binding at 10 µM (LTK) of 85%.
